This is an account of results in ChEMBL document CHEMBL3046024, “Ligand-based in silico 3D-QSAR study of PPAR- agonists” (Med Chem Res, 2011).

pEC50: −log10 of the molar value.

The target of one experiment is T1, Peroxisome proliferator-activated receptor gamma (Homo sapiens, UniProt P37231).
T1 sequence (P37231 whole entry): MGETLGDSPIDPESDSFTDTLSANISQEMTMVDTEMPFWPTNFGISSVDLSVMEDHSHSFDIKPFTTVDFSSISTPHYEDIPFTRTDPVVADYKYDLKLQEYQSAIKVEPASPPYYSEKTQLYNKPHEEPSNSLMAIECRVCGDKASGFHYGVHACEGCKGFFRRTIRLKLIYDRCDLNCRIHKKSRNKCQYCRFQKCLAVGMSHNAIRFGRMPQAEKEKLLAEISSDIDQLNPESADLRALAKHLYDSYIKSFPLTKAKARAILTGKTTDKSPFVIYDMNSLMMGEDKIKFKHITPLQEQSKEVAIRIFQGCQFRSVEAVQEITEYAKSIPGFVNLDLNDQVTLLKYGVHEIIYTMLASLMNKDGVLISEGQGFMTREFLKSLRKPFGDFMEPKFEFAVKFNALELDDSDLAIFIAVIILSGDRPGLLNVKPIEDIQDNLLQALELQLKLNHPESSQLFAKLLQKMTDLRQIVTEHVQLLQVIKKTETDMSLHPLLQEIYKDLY
The experiment is described as follows: Transactivation activity at Homo sapiens (human) PPARgamma.
In general, pEC50 refers to −log10 of the EC50, conventionally taken in molar units. Molecule `CCCc1cc(Oc2ccccc2)ccc1OCCCCOc1ccc(C2SC(=O)NC2=O)cc1` (stereo not given) had a pEC50 of 6.00.

Consider `O=C1NC(=O)C(Cc2ccc3c(c2)CC[C@H](Cc2ccccc2)O3)S1` (stereo not given in full) [ENGLITAZONE], for which the pEC50 is 6.00.

Another experiment has as its target T1, Peroxisome proliferator-activated receptor gamma. As to the kind of experiment: Transactivation activity at PPARgamma (unknown origin).
On to `CCOC(=O)CN1C(=O)S/C(=C\c2ccc(C)cc2)C1=O`, for which the pEC50 is 5.05.

`CCOC(=O)CN1C(=O)S/C(=C\c2cccc([N+](=O)[O-])c2)C1=O` had a pEC50 of 4.96.

Consider `CCOC(=O)CN1C(=O)SC(Cc2ccc(OCCBr)cc2)C1=O` (stereo not given), for which the pEC50 was 4.92.

Molecule `CCOC(=O)CN1C(=O)S/C(=C\c2ccc(OC)cc2)C1=O` showed a pEC50 of 5.15.

On to `CCOC(=O)CN1C(=O)SC(Cc2ccc(C(F)(F)F)cc2)C1=O` (stereo not given), for which the pEC50 is 5.05.

The molecule `C/C(=N\OCCOc1ccc(CC2SC(=O)NC2=O)cc1)c1ccc(-c2ccccc2)cc1` (stereo not given) gave a pEC50 of under 6.40.

`COC(=O)CN1C(=O)S/C(=C\c2ccc(O)cc2)C1=O`: the pEC50 was 5.00.

`COC(=O)CN1C(=O)SC(Cc2ccc(O)cc2)C1=O` (stereo not given) showed a pEC50 of 5.05.

As to `CCOC(=O)CN1C(=O)S/C(=C\c2ccc(OCCBr)cc2)C1=O`, the pEC50 was 4.96.

With `CCOC(=O)CN1C(=O)SC(Cc2ccc(F)cc2)C1=O` (stereo not given), the pEC50 is 5.00.

In the case of `CCOC(=O)CN1C(=O)S/C(=C\c2ccc(Cl)cc2)C1=O`, the pEC50 is 5.10.

Take `CCOC(=O)CN1C(=O)SC(Cc2ccc(N)cc2)C1=O` (stereo not given): the pEC50 was 5.10.

For `CCOC(=O)CN1C(=O)S/C(=C\c2ccc(C(F)(F)F)cc2)C1=O`, the pEC50 is 5.00.
